{"source": "patent US7439250B2", "about": "“Compositions and methods related to fatty amino acid derivatives” (Board of Regents, The University of Texas System, priority 2002, dated 2008)", "key": {"[1]": {"assay": "Liposome preparation by lipid film rehydration, observed by light microscopy", "type": "physicochemical", "conditions": "PBS pH 7.2, 55° C.", "procedure": "Two ALPs of General Formula 1 were prepared, a) laurylaldehyde (X=O and R^1, R^2=C11H23) or b) (S,S)-(3-Octadecanoyl-6-oxo-2-undecyl-hexahydro-pyrimidine-4-carboxlic acid and tested for the ability to form liposomes and for its suitability as a component of liposomes containing phospholipids and cholesterol. Liposomes were prepared by mixing varying amounts of the phospholipid, distearoyl phosphatidylcholine (DSPC), cholesterol or ALP in chloroform. The chloroform was removed to form a thin lipid film. After vacuum desiccation overnight, each lipid formulation was rehydrated with phosphate buffered saline (PBS), pH 7.2, warmed to 55° C. (phase transition temperature of DSPC) and vortexed vigorously to form multilamellar liposomes (MLV). Aliquots of each MLV formulation were set aside and observed by light microscopy. DSPC MLV, DSPC MLV containing 10 mole % ALP, ALP lipid structures (3 mg/ml) and ALP lipid structures (30 mg/ml), respectively, were imaged."}, "[2]": {"assay": "pH sensitivity of liposomes: turbidity (absorbance at 400 nm) as a function of pH titration", "type": "physicochemical", "conditions": "samples (50 μl) in 3 ml PBS titrated with HCl; pH lowered from 4.5 to 3.5; DSPC samples extruded to 100 nm", "procedure": "FIG. 2 illustrates the absorbance change as a function of pH titration. Samples (50 μl) in 3 ml of PBS were titrated with HCl. The pH was measured and absorbence read at 400 nm.\nThe DSPC MLV samples were then processed by extrusion to form liposomes with diameters of 100 nm. The pH sensitivity of the liposomes were compared by monitoring turbidity at 400 nm as a function of pH. […] This feature of ALP may be useful in certain applications where pH plays a role."}}}
{"smiles": "CCCCCCCCCCCCCCCCCC(=O)N1[C@@H](CCCCCCCCCCC)NC(=O)C[C@H]1C(=O)O", "note": "[ALP]", "values": [{"measurement": "structures formed on rehydration (light microscopy)", "setting": "[1]; ALP alone at high concentrations (30 mg/ml)", "value": "crystal structures were evident"}, {"measurement": "structures formed on rehydration (light microscopy)", "setting": "[1]; ALP alone at low concentrations (3 mg/ml)", "value": "typically form liposomes"}, {"measurement": "absorbance change at 400 nm as a function of pH (pH sensitivity)", "setting": "[2]", "value": "increased"}]}
